In publication PMC13046382, “Peptidoglycan recycling is critical for cell division, cell wall integrity, and β-lactam resistance in Caulobacter crescentus” (eLife, 2026):

Tests used:
[1] = molecular target: T1, PBP3 (Caulobacter vibrioides, UniProt B8H0A0); experiment: competition with bocillin-FL labelling, SDS-PAGE fluorescence; assay type: cell-based; settings: covalent, crude membranes in PBS
T1 construct: gene ftsI; native protein in crude membrane fraction, gel band
T1 sequence (B8H0A0 1-589): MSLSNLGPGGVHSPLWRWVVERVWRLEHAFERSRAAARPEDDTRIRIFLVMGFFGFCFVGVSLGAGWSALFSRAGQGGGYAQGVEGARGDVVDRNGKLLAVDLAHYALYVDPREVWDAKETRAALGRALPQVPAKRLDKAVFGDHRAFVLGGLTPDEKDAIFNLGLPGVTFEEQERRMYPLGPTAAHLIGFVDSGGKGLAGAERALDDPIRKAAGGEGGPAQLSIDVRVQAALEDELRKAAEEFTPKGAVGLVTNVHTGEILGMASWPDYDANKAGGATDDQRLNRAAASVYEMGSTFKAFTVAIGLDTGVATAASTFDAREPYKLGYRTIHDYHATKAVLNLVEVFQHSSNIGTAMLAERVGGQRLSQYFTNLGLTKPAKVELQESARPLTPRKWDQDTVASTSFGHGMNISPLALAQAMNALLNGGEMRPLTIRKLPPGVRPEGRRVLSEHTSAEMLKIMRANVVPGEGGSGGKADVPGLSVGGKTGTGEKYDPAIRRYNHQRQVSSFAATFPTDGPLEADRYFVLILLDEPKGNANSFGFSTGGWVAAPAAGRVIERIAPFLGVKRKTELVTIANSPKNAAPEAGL

[2] = molecular target: T2, CrbA (Caulobacter vibrioides, UniProt A0A0H3C8K5); experiment: as above; assay type: cell-based; settings: covalent; crude membranes in PBS, 1-100 µg/mL ampicillin for 2 hr at room temperature, active-site serine
T2 construct: native protein in crude membrane fraction, gel band

[3] = molecular target: T3, NagZ (Caulobacter vibrioides, UniProt A0A0H3C9G9); experiment: preincubation with NagZ, then coupled AmiR step and LC-MS; assay type: biochemical; settings: 10 µM NagZ, 50 mM HEPES, 200 mM NaCl, 10% glycerol, pH 7.2, 37 °C, 16 hr
T3 construct: gene CCNA_02085; His6-SUMO fusion expressed in E. coli Rosetta(DE3)pLysS, tag cut by SUMO protease

[4] = molecular target: T4, AmiR (Caulobacter vibrioides, UniProt A0A0H3CAA9); experiment: HPLC of reaction products; assay type: biochemical; settings: 20 mM HEPES-NaOH, 50 mM NaCl, 1 mM MgCl2, pH 7.5, 37 °C, 16 hr; mixture of anhydro-muropeptides from Slt70-digested sacculi
T4 construct: gene CCNA_02650; His6-SUMO fusion expressed in E. coli Rosetta(DE3)pLysS, tag cut by SUMO protease
T4 sequence (A0A0H3CAA9 entry or part of it): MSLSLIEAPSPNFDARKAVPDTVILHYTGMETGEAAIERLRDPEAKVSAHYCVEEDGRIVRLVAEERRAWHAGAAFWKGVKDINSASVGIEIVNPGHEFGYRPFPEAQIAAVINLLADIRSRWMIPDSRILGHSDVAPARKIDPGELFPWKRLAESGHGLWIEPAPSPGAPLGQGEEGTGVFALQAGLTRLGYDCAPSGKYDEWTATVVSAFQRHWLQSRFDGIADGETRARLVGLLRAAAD

T3 sequence (A0A0H3C9G9 entry or part of it): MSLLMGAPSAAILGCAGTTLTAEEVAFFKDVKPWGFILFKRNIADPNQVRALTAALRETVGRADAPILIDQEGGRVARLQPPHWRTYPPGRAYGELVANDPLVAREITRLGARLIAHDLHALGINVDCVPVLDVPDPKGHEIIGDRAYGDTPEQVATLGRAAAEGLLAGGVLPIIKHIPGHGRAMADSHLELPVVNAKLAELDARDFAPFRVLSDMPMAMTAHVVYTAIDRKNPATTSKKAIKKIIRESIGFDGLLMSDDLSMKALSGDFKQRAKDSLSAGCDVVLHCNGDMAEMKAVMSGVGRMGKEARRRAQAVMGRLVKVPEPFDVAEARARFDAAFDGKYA
T2 sequence (A0A0H3C8K5 entry or part of it): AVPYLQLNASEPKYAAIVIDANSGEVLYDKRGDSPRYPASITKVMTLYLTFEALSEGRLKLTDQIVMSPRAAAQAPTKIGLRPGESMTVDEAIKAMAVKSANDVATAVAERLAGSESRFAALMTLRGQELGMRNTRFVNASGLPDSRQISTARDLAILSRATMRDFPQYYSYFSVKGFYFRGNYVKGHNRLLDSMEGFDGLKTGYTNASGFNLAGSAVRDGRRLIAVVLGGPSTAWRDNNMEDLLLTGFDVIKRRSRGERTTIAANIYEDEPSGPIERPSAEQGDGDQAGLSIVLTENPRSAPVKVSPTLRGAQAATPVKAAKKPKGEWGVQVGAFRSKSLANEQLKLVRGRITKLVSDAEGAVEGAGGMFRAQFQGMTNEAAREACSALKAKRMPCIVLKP

## CC1(C)S[C@@H]2[C@H](NC(=O)[C@H](N)c3ccccc3)C(=O)N2[C@H]1C(=O)O [ampicillin]
[1]; 1-100 µg/mL ampicillin for 2 hr at room temperature, active-site serine
  competition with bocillin-FL labelling, SDS-PAGE fluorescence: Among the ampicillin targets identified were the essential, cell division-specific monofunctional transpeptidase PBP3
[2]
  competition with bocillin-FL labelling, SDS-PAGE fluorescence: all but one of them (PbpX) remained unlabeled

## CC1=C(C(=O)O)N2C(=O)[C@@H](NC(=O)[C@H](N)c3ccccc3)[C@H]2SC1 [cephalexin]
[1]; 5 µg/mL cefalexin for 2 hr at room temperature
  competition with bocillin-FL labelling, SDS-PAGE fluorescence: The labeling of PBP3 and some bifunctional PBPs was also abolished by preincubation with cephalexin

## CC(=O)N[C@H]1[C@H](O[C@H]2[C@H](O[C@H](C)C(=O)N[C@@H](C)C(=O)N[C@H](CCC(=O)N[C@@H](CCC[C@@H](N)C(=O)O)C(=O)N[C@H](C)C(=O)O)C(=O)O)[C@@H](NC(C)=O)[C@@H]3OC[C@H]2O3)O[C@H](CO)[C@@H](O)[C@@H]1O [GlcNAc–anhMurNAc-tetrapeptide]
[3]
  preincubation with NagZ, then coupled AmiR step and LC-MS: substrate anhMurNAc-tetrapeptide, generated by preincubating purified GlcNAc–anhMurNAc-tetrapeptide with NagZ
[4]
  HPLC of reaction products: AmiR efficiently hydrolyzed tetrapeptide-containing fragments
